The record followed here is patent US7659245B2, “Macrocylic inhibitors of hepatitis C virus” (Tibotec Pharmaceuticals Ltd, priority 2005, dated 2010).

A word on the EC50: it is the concentration needed to bring the measured effect to its halfway point. In general, Ki refers to a dissociation constant, usually derived from enzyme kinetics or from competition with a known ligand. Higher therefore signals weaker binding.

The conditions of data set [1]: rcm bond, DCE.
The conditions of data set [2]: rcm bond, 14-membered ring, Hoveyda-Grubbs II, DCE.
Data set [3] deals with HCV replicons (Huh-7 luc/neo cells, NS3-NS5B regions of HCV type 1b). The experiment in a line: Replicon assay: inhibition of HCV RNA replication in Huh-Luc cells (luciferase read-out). It counts as cell-based. As to conditions: HCV type 1b replicon, luciferase activity after three days. As for the experimental part: The in vitro antiviral activity against HCV of the compounds of formula (I) was tested in a cellular HCV replicon system based on Lohmann et al. (1999) Science 285:110-113, with the further modifications described by Krieger et al. (2001) Journal of Virology 75: 4614-4624 (incorporated herein by reference), which is further exemplified in the examples section. This model, while not a complete infection model for HCV, is widely accepted as the most robust and efficient model of autonomous HCV RNA replication currently available. […] It will be appreciated that it is important to distinguish between compounds that specifically interfere with HCV functions from those that exert cytotoxic or cytostatic effects in the HCV replicon model, and as a consequence cause a decrease in HCV RNA or linked reporter enzyme concentration. Assays are known in the field for the evaluation of cellular cytotoxicity based for example on the activity of mitochondrial enzymes using fluorogenic redox dyes such as resazurin. Furthermore, cellular counter screens exist for the evaluation of non-selective inhibition of linked reporter gene activity, such as firefly luciferase. Appropriate cell types can be equipped by stable transfection with a luciferase reporter gene whose expression is dependent on a constitutively active gene promoter, and such cells can be used as a counter-screen to eliminate non-selective inhibitors.
The compounds of formula (I) were examined for activity in the inhibition of HCV RNA replication in a cellular assay. […] The cellular assay was based on a bicistronic expression construct, as described by Lohmann et al. (1999) Science vol. 285 pp. 110-113 with modifications described by Krieger et al. (2001) Journal of Virology 75: 4614-4624, in a multi-target screening strategy. In essence, the method was as follows.
The assay utilized the stably transfected cell line Huh-7 luc/neo (hereafter referred to as Huh-Luc). This cell line harbors an RNA encoding a bicistronic expression construct comprising the wild type NS3-NS5B regions of HCV type 1b translated from an Internal Ribosome Entry Site (IRES) from encephalomyocarditis virus (EMCV), preceded by a reporter portion (FfL-luciferase), and a selectable marker portion (neo^R, neomycine phosphotransferase). The construct is bordered by 5′ and 3′ NTRs (non-translated regions) from HCV type 1b. Continued culture of the replicon cells in the presence of G418 (neo^R) is dependent on the replication of the HCV RNA. The stably transfected replicon cells that express HCV RNA, which replicates autonomously and to high levels, encoding inter alia luciferase, are used for screening the antiviral compounds.
The replicon cells were plated in 384 well plates in the presence of the test and control compounds which were added in various concentrations. Following an incubation of three days, HCV replication was measured by assaying luciferase activity (using standard luciferase assay substrates and reagents and a Perkin Elmer ViewLux™ ultraHTS microplate imager). Replicon cells in the control cultures have high luciferase expression in the absence of any inhibitor. The inhibitory activity of the compound on luciferase activity was monitored on the Huh-Luc cells, enabling a dose-response curve for each test compound. EC50 values were then calculated, which value represents the amount of the compound required to decrease by 50% the level of detected luciferase activity, or more specifically, the ability of the genetically linked HCV replicon RNA to replicate.
Background: Replicon systems follow genome replication, usually without infectious particles.

For data set [4], the target named is full-length hepatitis C NS3 protease enzyme (HCV NS3/4A protease complexes) (Hepatitis C virus genotype 1a, UniProt P27958). The experiment in a line: Inhibition assay (enzymatic assay) of HCV NS3/4A protease. Format: biochemical. As to conditions: enzyme 1 nM, 25 μM NS4A cofactor, 0.5 μM depsipeptide substrate, 30° C., competitive model. The method, then:
The aim of this in vitro assay is to measure the inhibition of HCV NS3/4A protease complexes by the compounds of the present invention. This assay provides an indication of how effective compounds of the present invention would be in inhibiting HCV NS3/4A proteolytic activity.
The inhibition of full-length hepatitis C NS3 protease enzyme was measured essentially as described in Poliakov, 2002 Prot Expression & Purification 25 363 371. Briefly, the hydrolysis of a depsipeptide substrate, Ac-DED(Edans)EEAbuψ[COO]ASK(Dabcyl)-NH2 (AnaSpec, San José, USA), was measured spectrofluorometrically in the presence of a peptide cofactor, KKGSVVIVGRIVLSGK (Åke Engström, Department of Medical Biochemistry and Microbiology, Uppsala University, Sweden). [Landro, 1997 #Biochem 36 9340-9348]. The enzyme (1 nM) was incubated in 50 mM HEPES, pH 7.5, 10 mM DTT, 40% glycerol, 0.1% n-octyl-D-glucoside, with 25 μM NS4A cofactor and inhibitor at 30° C. for 10 min, whereupon the reaction was initiated by addition of 0.5 μM substrate. Inhibitors were dissolved in DMSO, sonicated for 30 sec. and vortexed. The solutions were stored at −20° C. between measurements.
The final concentration of DMSO in the assay sample was adjusted to 3.3%. The rate of hydrolysis was corrected for inner filter effects according to published procedures. [Liu, 1999 Analytical Biochemistry 267 331-335]. Ki values were estimated by non-linear regression analysis (GraFit, Erithacus Software, Staines, MX, UK), using a model for competitive inhibition and a fixed value for Km (0.15 μM). A minimum of two replicates was performed for all measurements.

[5] abbreviates: 14-membered ring, Hoveyda-Grubbs I, with chain assembly.

Read-outs that look alike come from different tables or passages of the source.

Chain of full-length hepatitis C NS3 protease enzyme (HCV NS3/4A protease complexes) (P27958 1027-1657, one chain of several): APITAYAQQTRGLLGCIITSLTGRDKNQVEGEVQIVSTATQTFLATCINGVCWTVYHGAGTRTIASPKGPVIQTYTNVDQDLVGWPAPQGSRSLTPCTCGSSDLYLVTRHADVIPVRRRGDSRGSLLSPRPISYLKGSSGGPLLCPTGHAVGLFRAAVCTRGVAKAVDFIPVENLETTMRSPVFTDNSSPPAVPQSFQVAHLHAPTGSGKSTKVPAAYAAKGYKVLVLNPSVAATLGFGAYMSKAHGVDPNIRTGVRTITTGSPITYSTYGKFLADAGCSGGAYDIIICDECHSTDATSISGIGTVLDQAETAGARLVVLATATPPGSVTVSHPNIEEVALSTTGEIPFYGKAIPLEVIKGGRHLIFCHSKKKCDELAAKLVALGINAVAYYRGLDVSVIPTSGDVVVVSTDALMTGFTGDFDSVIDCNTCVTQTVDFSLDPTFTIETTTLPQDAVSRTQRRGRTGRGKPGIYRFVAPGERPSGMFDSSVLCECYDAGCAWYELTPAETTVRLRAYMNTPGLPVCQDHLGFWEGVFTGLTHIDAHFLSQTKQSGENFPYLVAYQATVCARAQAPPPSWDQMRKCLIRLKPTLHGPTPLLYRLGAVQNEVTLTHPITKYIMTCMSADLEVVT

Take `CCOC(=O)C12CC1C=CCCCCCN(Cc1ccc(OC)cc1)C(=O)N1CC(OC(=O)c3ccc([N+](=O)[O-])cc3)CC1C(=O)N2` (centres unmarked): the ring closure, isolated yield in data set [1] (from C=CCCCCCN(Cc1ccc(OC)cc1)C(=O)N1CC(OC(=O)c2ccc([N+](=O)[O-])cc2)CC1C(=O)NC1(C(=O)OCC)CC1C=C, 15-membered ring, Hoveyda-Grubbs II (5 mol%), then LiOH, 0.74 mM, 2 steps) came to 61%. Molecule `CCOC(=O)C12CC1C=CCCCCN(C)C(=O)C1CC(Oc3nc(-c4ccc(OC)cc4)nc4c(C)c(OC)ccc34)CC1C(=O)N2` (centres unmarked) returned a ring closure, isolated yield in data set [1] (from C=CCCCCN(C)C(=O)C1CC(Oc2nc(-c3ccc(OC)cc3)nc3c(C)c(OC)ccc23)CC1C(=O)NC1(C(=O)OCC)CC1C=C, 14-membered ring, Hoveyda-Grubbs II, 1.71 mM, 16.0 h) of 75%. Turning to `CCOC(=O)C12CC1C=CCCCCN(C)C(=O)C1CC(Oc3nc(-c4cccc(F)c4)nc4c(C)c(OC)ccc34)CC1C(=O)N2` (centres unmarked), the ring closure, isolated yield in data set [1] (from C=CCCCCN(C)C(=O)C1CC(Oc2nc(-c3cccc(F)c3)nc3c(C)c(OC)ccc23)CC1C(=O)NC1(C(=O)OCC)CC1C=C, 14-membered ring, Hoveyda-Grubbs II, 1.49 mM, 16.0 h) worked out at 70%. In data set [2] (from 4-(2-Phenyl-quinazolin-4-yloxy)-cyclopentane-1,2-dicarboxylic acid 1-[(1 cyclo-propanesulfonecarbonyl-2-vinylcyclopropyl)-amide]2-(hex-5-enylmethylamide), 1.72 mM, 150.0 °C), `CN1CCCCC=CC2CC2(C(=O)NS(=O)(=O)C2CC2)NC(=O)C2CC(Oc3nc(-c4ccccc4)nc4ccccc34)CC2C1=O` (centres unmarked) yielded a ring closure, yield after HPLC of 29%. The molecule `CN1CCCCC=CC2CC2(C(=O)NS(=O)(=O)C2CC2)NC(=O)C2CC(Oc3nc(N4CCOCC4)nc4ccccc34)CC2C1=O` (centres unmarked) had a ring closure, yield after HPLC in data set [2] (from 4-(2-Morpholin-4-yl-quinazolin-4-yloxy)-cyclopentane-1,2-dicarboxylic acid 1-[(1-cyclopropanesulfonylaminocarbonyl-2-vinyl-cyclopropyl)-amide]2-(hex-5-enyl-methyl-amide), 1.63 mM, 150.0 °C) of 56%. With `CN1CCN(c2nc(OC3CC4C(=O)NC5(C(=O)NS(=O)(=O)C6CC6)CC5C=CCCCCN(C)C(=O)C4C3)c3ccccc3n2)CC1` (centres unmarked), in data set [2] (from 4-[2-(4-Methyl-piperazin-1-yl)-quinazolin-4-yloxy]-cyclopentane-1,2-dicarboxylic acid 1-[(1-cyclopropanesulfonylaminocarbonyl-2-vinyl-cyclopropyl)amide]2-(hex-5-enyl-methyl-amide), 1.61 mM, 150.0 °C), the ring closure, yield after HPLC came to 22%. On to `COc1ccc2c(OC3CC4C(=O)NC5(C(=O)O)CC5C=CCCCCN(C)C(=O)N4C3)nc(-c3ccc(F)cc3)nc2c1C` (centres unmarked), for which the ring closure, isolated yield in data set [1] (setting [5]) came out at 20%. `COc1ccc2c(OC3CC4C(=O)NC5(C(=O)O)CC5C=CCCCCN(C)C(=O)N4C3)ncnc2c1C` (centres unmarked) displayed a ring closure, isolated yield in data set [1] (setting [5]) of 8%. With “17-(7-Methoxy-2-phenyl-quinazolin-4-yloxy-13-methyl-2,14-dioxo-3,13-diazatricyclo[13.3.0.0*4,6*]octadec-7-ene-4-carboxylic acid ethyl ester”, the ring closure, isolated yield in data set [1] (14-membered ring, Hoveyda-Grubbs I, 1.1 mM) amounted to 40%. The molecule “17-[2-(4-Isopropyl-thiazol-2-yl)-7-methoxy-quinazolin-4-yloxy]-13-methyl-2,14-dioxo-3,13-diaza-tricyclo[13.3.0.0*4,6*]octadec-7-ene-4-carboylic acid ethyl ester” showed a ring closure, isolated yield in data set [1] (14-membered ring, Hoveyda-Grubbs II, 1.45 mM, 90.0 °C) of 46%.

In the case of `COc1ccc2c(O[C@@H]3C[C@H]4C(=O)N[C@]5(C(=O)NS(=O)(=O)C6CC6)C[C@H]5/C=C\CCCCN(C)C(=O)N4C3)nc(-c3cccc(F)c3)nc2c1C` [Compound 165, Cyclopropanesulfonic acid {17-[2-(3-fluoro-phenyl)-7-methoxy-8-methyl-quinazolin-4-yloxy]-13-methyl-2,14-dioxo-3,13,15-triaza-tricyclo[13.3.0.0*4,6*]octadec-7-ene-4-carbonyl}-amide], the EC50 in data set [3] (Hepatitis C virus, Huh-7, 72 h) lay in the range of 0.5 to 199 nM. This molecule showed a Ki in data set [4] of 0.1 to 4.9 nM.

With `COc1ccc2c(O[C@@H]3C[C@H]4C(=O)N[C@]5(C(=O)NS(=O)(=O)C6CC6)C[C@H]5/C=C\CCCCN(C)C(=O)[C@@H]4C3)nc(-c3cc(F)cc(F)c3)nc2c1C` [Compound 170, Cyclopropanesulfonic acid {17-[2-(3,5-difluoro-phenyl)-7-methoxy-8-methyl-quinazolin-4-yloxy]-13-methyl-2,14-dioxo-3,13-diaza-tricyclo[13.3.0.0*4,6*]octadec-7-ene-4-carbonyl}-amide], the EC50 in data set [3] (Hepatitis C virus, Huh-7, 72 h) lay within 0.5 to 199 nM. This molecule also gave an inhibition constant (Ki) in data set [4] of 5 to 99.9 nM. For `COc1ccc2c(O[C@@H]3C[C@H]4C(=O)N[C@]5(C(=O)NS(=O)(=O)C6CC6)C[C@H]5/C=C\CCCCCNC(=O)N4C3)nc(-c3ccccc3)nc2c1C` [Compound 174, Cyclopropanesulfonic acid [18-(7-methoxy-8-methyl-2-phenyl-quinazolin-4-yloxy)-2,15-dioxo-3,14,16-triaza-tricyclo[14.3.0.0*4,6*]nonadec-7-ene-4-carbonyl]-amide] the same measures were 0.5 to 199 nM and 0.1 to 4.9 nM. For `COc1ccc2c(O[C@@H]3C[C@H]4C(=O)N[C@]5(C(=O)NS(=O)(=O)C6(C)CC6)C[C@H]5/C=C\CCCCCNC(=O)N4C3)nc(-c3ccccc3)nc2c1C` [Compound 176, 1-Methyl-cyclopropanesulfonic acid [18-(7-methoxy-8-methyl-2-phenyl-quinazolin-4-yloxy)-2,15-dioxo-3,14,16-triaza-tricyclo[14.3.0.0*4,6*]nonadec-7-ene-4-carboyl]-amide] the same measures were 0.5 to 199 nM and 0.1 to 4.9 nM.

Regarding `COc1ccc2c(O[C@@H]3C[C@H]4C(=O)N[C@]5(C(=O)NS(=O)(=O)C6CC6)C[C@H]5/C=C\CCCCN(C)C(=O)N4C3)nc(-c3ccncc3)nc2c1C` [Compound 179, Cyclopropanesulfonic acid [17-(7-methoxy-8-methyl-2-pyridin-4-yl-quinazolin-4-yloxy)-13-methyl-2,14-dioxo-3,13,15-triaza-tricyclo[13.3.0.0*4,6*]octadec-7-ene-4-carbonyl]-amide], in data set [3] (Hepatitis C virus, Huh-7, 72 h), the EC50 lay within 0.5 to 199 nM. For the same molecule, the Ki in data set [4] lay in the range of 0.1 to 4.9 nM. For the molecule “Cyclopropanesulfonic acid {13-methyl-2,14-dioxo-17-[2-(5H-pyrazol-1-yl)-quinazolin-4-yloxy]-3,13-diaza-tricyclo[13.3.0.0*4,6*]octadec-7-ene-4-carbonyl-amide [Compound 70]”, the 50% effective concentration (EC50) in data set [3] was greater than 10000 nM. This molecule came in with a Ki in data set [4] greater than 1000 nM. “Cyclopropanesulfonic acid {17-[2-(4-isopropyl-thiazol-2-yl)-quinazolin-4-yloxy-]-13-methyl-2,14-dioxo-3,13-diaza-tricyclo[13.3.0.0*4,6*]octadec-7-ene-4-carbonyl}-amide” showed a ring closure, yield after HPLC in data set [2] (1.67 mM, 15.0 °C) of 64%.
